Reference: US20090130064A1, “DIFFERENTIATION OF STEM CELLS AND STABILIZATION OF PHENOTYPICAL PROPERTIES OF PRIMARY CELLS” (priority 2004, published 2009)

Tests used:
Format in all cases: cell-based
GSTM = GSTM iso-enzyme activity in cultured rat hepatocytes; details: TSA started at 4 h; day 4 and 7
Excerpt: (§1) Hepatocytes were isolated from male Sprague-Dawley rats by a two-step collagenase perfusion as described (De Smet et al. In ‘Methods in Molecular Biology, Vol. 107: Cytochrome P450 Protocols’, Philips IR and Shephard E A, eds., p.p 295-301, Humana Press, Totowa, 1998). Hepatocytes were cultivated in monolayer cultures with Willam's E Medium (WE) for 7 days. […] The maintenance of differentiation characteristics was studied after 2, 4, and 7 days (D2, D4, D7) of culture.
(§2) In order to investigate Phase II biotransformation, total cytosolic glutathione S-transferase (GST) activity and activities of individual GSTA, GSTP, and GSTM iso-enzymes were measured using standard techniques known in the art. (i.e., measuring conjugation of reduced glutathione with 1-chloro-2,4-dinitrobenzene for total GST; measuring conjugation of reduced glutathione with 7-chloro-4-nitrobenzo-2-oxa-1,3-diazole for GSTA activity; measuring conjugation of reduced glutathione with ethacrynic acid for GSTP activity; and measuring conjugation of reduced glutathione with 1,2-dichloro-4-nitrobenzene for GSTM activity).

rat hepatocytes = experiment: Albumin ELISA in primary rat hepatocyte monolayers (conditions C1, C2); details: 1 μM TSA; from D4 (C2) or D7 (C1) on
Procedure: (§3) In all conditions, the hepatocytes were cultivated as a monolayer configuration, and samples were taken at days 1, 4 and 7 (D1, D4, D7) of the cultivation time.
ALB concentrations secreted into the media were analysed by competitive enzyme-linked immunosorbent assay (ELISA) as described (Koebe et al. Int J Artif Organs 17: 95-106, 1994). The ALB levels were normalized with respect to the media used.

GSTA = GSTA iso-enzyme activity in cultured rat hepatocytes; details: TSA treatment
Excerpt: as §1, §2

Cx43 = Cx43 expression and localization (immunoblotting, immunocytochemistry) in rat hepatocytes; details: 1 μM TSA
Procedure: as §3
Proteins (25 or 50 μg) were resolved on SDS-PAGE (7.5, 10 or 12%) and blotted afterwards onto nitrocellulose membranes. After blocking with non-fatty milk, membranes were incubated with appropriate concentrations of primary and secondary antibodies (HRP labeled). Proteins were detected using the ECL detection system (Amersham Biosciences). Primary antibodies: Cx26 (Zymed, 1/250), Cx32 (Sigma, 1/500), Cx43 (Zymed, 1/100).
Hepatocytes were fixed with cold ethanol, peremeabilised with Triton X-100 (Sigma) and blocked with non-fatty milk. Following incubation with appropriate concentrations of primary and secondary antibodies (FITC or TRITC labeled), samples were mounted with DAPI-containing Vectashield (Vector Laboratories). Detection was performed by fluorescence microscopy (Leica DMR/XA).

caspase-3, Bid and Bax = experiment: Western blotting of caspase-3 activation, Bid and Bax in primary rat hepatocytes
Excerpt: (§4) Male outbred Sprague-Dawley rats (200-300 g, Iffa Credo, Brussels, Belgium) were kept under controlled environmental conditions (12-hr light-dark cycle) and fed a standard diet (Animafabo A04, water ad libitum). Hepatocytes were isolated by a two-step collagenase perfusion as described (De Smet et al. In ‘Methods in Molecular Biology, Vol. 107: Cytochrome P450 Protocols’, Philips I R and Shephard E A, eds., pp 295-301, Humana Press, Totowa, 1998). Cell liability was >90% as determined by trypan blue exclusion. Cells (0.4×10^5 cells/cm^2) were plated in MEM/M199 (3:1), containing BSA (1 mg/ml), bovine insulin (10 μg/ml), L-glutamine (2 mM), FBS (10% v/v) and antibiotics (7.3 IU/ml benzyl penicillin, 50 μg/ml streptomycin sulphate, 50 μg/ml kanamycin monosulphstep and 10 μg/ml sodium ampicillin). Four hours after plating, serum-containing medium was removed and fresh serum-free medium was added to the cultures. Culture medium was refreshed daily. EGF (50 ng/ml) was added 4 hours after plating. A 100 mM stock solution of 4-Me2N-BAVAH was prepared in ethanol.
Total cell extracts were prepared as described previously (Papeleu et al. J Hepatol 39: 374-382, 2003) and proteins (25 or 50 μg per lane) were separated electrophoretically by SDS-PAGE and electroblotted onto nitrocellulose membranes (Amersham Pharmacia Biotech, Buckinghamshire, UK). Equal sample loading was verified by immersion of the membranes in Ponceau S. Unspecific binding sites were blocked with 5% skim milk/Tris-buffered saline. Incubations with primary antibodies were performed overnight at 4° C. under gentle shaking. Proteins were detected using the ECL detection system (Amersham Pharmacia Biotech, Buckinghamshire, UK) according to the manufacturer's recommendations.

primary rat hepatocytes [1] = experiment: FACS analysis of cell cycle distribution of primary rat hepatocytes; details: 50 μM + EGF; 72 hours
Procedure: Ploidy of hepatocyte nuclei was measured by FACS analysis. After hypotonic swelling of the cells with 0.1% sodium citrate, cellular DNA was stained with propidium iodide (50 μg/ml) and analyzed on a FACStar^Plus (Beckton Dickinson Biosciences, San José, Calif., USA).

primary rat hepatocytes [2] = experiment: DNA synthesis ([methyl-3H]-thymidine) in EGF-stimulated primary rat hepatocytes
Excerpt: as §4
Hepatocytes were cultured in triplicate in 35 mm tissue culture dishes (Beckton Dickinson, UK). Cells were incubated with [methyl-^3H]-thymidine (25 Ci/mmol (2 μCi/ml)) for 24 hours prior to harvesting. Its incorporation was measured by liquid scintillation counting (Wallac 1410; counting efficiency: 67.5%) after trichloroacetic acid precipitation of the DNA. Results are expressed as counts per minute (cpm) per μg of total cellular proteins. Protein concentration of the samples was determined according to the Bradford procedure (Bradford. Anal Biochem 72: 248-254, 1976), using BSA as a standard.

histone H4 = experiment: Histone H4 acetylation (in vitro HDAC inhibiting activity) in primary rat hepatocytes, Western blot; details: 48 hours
Excerpt: as §4
Hepatocytes were treated for 48 hours with 4-Me2N-BAVAH (10, 25 or 50 μM) Histones were acid-extracted as described previously (Coussens et al. J Biol Chem 254:1716-1723, 1979). Extracted histones (20 μg per lane) were electrophoresed on a 15% SDS-PAGE as described (Waterborg J et al. Anal Biochem 162: 430-434, 1987) and blotted. Equal sample loading was confirmed with Ponceau S. Membranes were incubated at room temperature with primary antibody for 1 hour under gentle shaking and visualized by ECL. Band intensities were quantified by laser densitometry.

Row | histone H4 acetylation, fold induction (histone H4; 10 μM) [fold induction] | histone H4 acetylation, fold induction (histone H4; 25 μM) [fold induction] | histone H4 hyperacetylation, fold induction (histone H4; 50 μM) [fold induction] | Structure (SMILES) | activity of GSTM iso-enzyme (GSTM) | albumin secretion (rat hepatocytes) | activity of GSTA iso-enzyme (GSTA) | expression of Cx43 (Cx43) | localization of Cx43 (Cx43) | expression of pro-apoptotic proteins Bid and Bax (caspase-3, Bid and Bax; 50 μM) | cleavage of pro-caspase-3 into active p18 fragments (caspase-3, Bid and Bax; 24 and 48 hours of culture) | cleavage of pro-caspase-3 into active p18 fragments (caspase-3, Bid and Bax; after 72 hours of treatment) | number of cells in G2/M (primary rat hepatocytes [1]) | proportion of cells in G0/G1 (primary rat hepatocytes [1]) | inhibitory effect on DNA replication (primary rat hepatocytes [2]; 50 μM added at 24 hours or 48 hours) | EGF-induced DNA synthesis (primary rat hepatocytes [2]; 50 μM from time of plating) | DNA synthesis (primary rat hepatocytes [2]; 50 μM maintained until 48 hours) | reduction in 3H-thymidine incorporation compared to untreated control cultures (primary rat hepatocytes [2]; 50 μM, withdrawal at 24 hours of culture, measured at 72 hours) [%]
1 |  |  |  | CC(C=CC(=O)NO)=CC(C)C(=O)c1ccc(N(C)C)cc1 (centres unmarked) [TSA] | stimulated | improves albumin secretion | substantially unaffected | induces the expressions | cytosolic localization |  |  |  |  |  |  |  |  | 
2 | 2.35±0.05 | 3.56±0.23 | 6.91±0.63 | CN(C)c1ccc(C(=O)NCCCCC(=O)NO)cc1 [4-Me2N-BAVAH, 5-(4-dimethylaminobenzoyl)-aminovaleric acid hydroxamide] |  |  |  |  |  | decreased the expression | significantly lower | completely prevented | significantly lower | significantly higher proportion | less or no inhibitory effect | totally suppressed | no DNA synthesis occurred | 50.9±1.6
